Experimental data taken from patent US20110086388A1, “CHAPERONE-ASSISTED PROTEIN EXPRESSION AND METHODS OF USE” (Duke University, priority 2009, published 2011).

Tests used:
[1] = test system: Actinoplanes ATCC 33076 Ramo16, NAD dependent reductase (native protein, no fusion tag); assay: Ramo16 activity assay (continuous spectrophotometric, decrease in NADH absorbance at 340 nm); format: biochemical; conditions: pseudo-substrate acetoacetyl-CoA varied 0 to 5 mM; 250 μM NADH fixed; 10 μM Ramo16; 50 mM HEPES, pH 7.6, 100 mM NaCl; 25° C.
Method: FIG. 8 is a kinetic profile of Ramo16 (10 μM) with varied acetoacetyl-CoA (0 to 5 mM) and fixed NADH (250 μM).
Ramo16, the NAD dependent reductase, was expressed natively in autoinduction media to prevent the formation of insoluble aggregates. Expression in a His6-tagged expression vector led to protein instability and ultimately precipitation.
Cloning and Purification of Ramo16: The ramo16 gene was obtained by PCR amplification from cosmid DNA (OO8CK) from Actinoplanes ATCC 33076 using Herculase Hot Start Polymerase with the following primers: the C-terminal his-tag were Ramo16C-F (5′-GGGAATTCCATATGCGCTTGACCGGCAAGACCCCG-3′), Ramo16C-R (5′-CCCAAGCTTGCGCGTGGTGAATCCGCCGTCGAC-3′, and the N-terminal his-tag were Ramo16N-F (5′-TATACCATGGCTCGCTTGACCGGCAAGAC-3′). and Ramo16N-R (5′-TATAGGATCCTCAGCGCGTGGTGAATCCG-3′). The amplified gene products were cloned into the Zero Blunt Cloning Vector and sequenced. […] Fractions were analyzed by SDS-PAGE and the band corresponding to Ramo16 was excised and the identity of the protein confirmed by Q-TOF. […]
Ramo 16 Activity Assay: Initial rates of Ramo16 were determined by monitoring the decrease in absorbance of NADH at 340 nm at 25° C. The 100 μL reactions were monitored in half-area clear bottom Corning plates using a 96 well plate SpectraMax Molecular Devices spectrophotometer. […]

[2] = test system: vancomycin-resistant Enterococcus faecium (VRE); conditions: cited from earlier work
[3] = test system: methicillin-resistant Staphylococcus aureus (MRSA); conditions: cited from earlier work

Compound	Km [1]	kcat [1]	effectiveness against VRE [2]	effectiveness against MRSA [3]
CC(=O)CC(=O)SCCNC(=O)CCNC(=O)[C@H](O)C(C)(C)COP(=O)(O)OP(=O)(O)OC[C@H]1O[C@@H](n2cnc3c(N)ncnc32)[C@H](O)[C@@H]1OP(=O)(O)O [acetoacetyl-Coenzyme A]	2350 ± 390 µM	15.7 ± 1.2 s⁻¹		
ramoplanin A2			highly effective	highly effective
